The values below come from ChEMBL document CHEMBL1132017, “In vitro susceptibility of Helicobacter pylori to trifluoromethyl ketones” (1999).

The structures appear in SMILES notation. In brackets after ≈: the same amount, converted by molar mass.

As a reminder, the MIC50 is an inhibitory concentration at the 50% level, which refers to growth in some studies and to a panel of isolates in others.

The assay has as its system Helicobacter pylori. Kind of assay: In vitro inhibitory activity evaluated against Helicobacter pylori (HP). It is filed as functional.

For the compound `O=C(Cc1ccccc1)C(F)(F)F`, the MIC50 is above 100 µg/mL.
In turn, `O=C(c1ccccc1)C(F)(F)F` registered an MIC50 above 100 µg/mL.
`O=C(Cc1ccccn1)C(F)(F)F` showed an MIC50 above 100 µg/mL.
`CC(=O)Cc1nc2ccccc2o1`: the MIC50 was found to be 51 µg/mL (≈ 291 µM).
With `Cc1nc(CC(=O)C(F)(F)F)oc1C` the figure was above 100 µg/mL; with `O=C(c1cccs1)C(F)(F)F`, 53 µg/mL (≈ 294 µM).
`O=C(Cc1nc2ccccc2s1)C(F)(F)F`: the MIC50 stood at 70 µg/mL (≈ 285 µM).
`O=C(c1nc2ccccc2o1)C(F)(F)F` displayed an MIC50 above 100 µg/mL.
With `Cn1c(C(=O)C(F)(F)F)cnc1-c1ccccc1` the figure was above 100 µg/mL; with `O=C(c1ccc[nH]1)C(F)(F)F`, above 100 µg/mL; with `O=C(c1c[nH]c2ccccc12)C(F)(F)F`, 12 µg/mL (≈ 56.3 µM).
With `O=C(Cc1nc2ccccc2o1)C(F)(F)F`, the MIC50 stood at 3.6 µg/mL (≈ 15.7 µM).
Regarding `O=C(Cc1nc2ccccc2[nH]1)C(F)(F)F`, the MIC50 worked out at 52 µg/mL (≈ 228 µM).
Take `CC[C@H]1OC(=O)[C@H](C)[C@@H](O[C@H]2C[C@@](C)(OC)[C@@H](O)[C@H](C)O2)[C@H](C)[C@@H](O[C@@H]2O[C@H](C)C[C@H](N(C)C)[C@H]2O)[C@](C)(OC)C[C@@H](C)C(=O)[C@H](C)[C@@H](O)[C@]1(C)O` [CLARITHROMYCIN]: the MIC50 came to 1.9 µg/mL (≈ 2.54 µM).
For the compound `CC[C@H]1OC(=O)[C@H](C)[C@@H](O[C@H]2C[C@@](C)(OC)[C@@H](O)[C@H](C)O2)[C@H](C)[C@@H](O[C@@H]2O[C@H](C)C[C@H](N(C)C)[C@H]2O)[C@](C)(O)C[C@@H](C)C(=O)[C@H](C)[C@@H](O)[C@]1(C)O` [ERYTHROMYCIN], the MIC50 came out at 1.8 µg/mL (≈ 2.45 µM).
The compound `Cc1ncc([N+](=O)[O-])n1CCO` [METRONIDAZOLE] returned an MIC50 of 74 µg/mL (≈ 432 µM).
